Activity calls are given as the source filed them. No rule for the calls is given here.
The molecules below were run against Insulin-degrading enzyme (Homo sapiens) (UniProt P14735) (assay: inhibition of recombinant IDE cleaving insulin – biochemical, TR-FRET, counter-screen for IDE inhibitor project, late-stage follow-up (AID 624065)). Conditions: recombinant IDE insulin degradation.
Insulin-degrading enzyme (Homo sapiens), sequence (P14735 whole entry, looked up): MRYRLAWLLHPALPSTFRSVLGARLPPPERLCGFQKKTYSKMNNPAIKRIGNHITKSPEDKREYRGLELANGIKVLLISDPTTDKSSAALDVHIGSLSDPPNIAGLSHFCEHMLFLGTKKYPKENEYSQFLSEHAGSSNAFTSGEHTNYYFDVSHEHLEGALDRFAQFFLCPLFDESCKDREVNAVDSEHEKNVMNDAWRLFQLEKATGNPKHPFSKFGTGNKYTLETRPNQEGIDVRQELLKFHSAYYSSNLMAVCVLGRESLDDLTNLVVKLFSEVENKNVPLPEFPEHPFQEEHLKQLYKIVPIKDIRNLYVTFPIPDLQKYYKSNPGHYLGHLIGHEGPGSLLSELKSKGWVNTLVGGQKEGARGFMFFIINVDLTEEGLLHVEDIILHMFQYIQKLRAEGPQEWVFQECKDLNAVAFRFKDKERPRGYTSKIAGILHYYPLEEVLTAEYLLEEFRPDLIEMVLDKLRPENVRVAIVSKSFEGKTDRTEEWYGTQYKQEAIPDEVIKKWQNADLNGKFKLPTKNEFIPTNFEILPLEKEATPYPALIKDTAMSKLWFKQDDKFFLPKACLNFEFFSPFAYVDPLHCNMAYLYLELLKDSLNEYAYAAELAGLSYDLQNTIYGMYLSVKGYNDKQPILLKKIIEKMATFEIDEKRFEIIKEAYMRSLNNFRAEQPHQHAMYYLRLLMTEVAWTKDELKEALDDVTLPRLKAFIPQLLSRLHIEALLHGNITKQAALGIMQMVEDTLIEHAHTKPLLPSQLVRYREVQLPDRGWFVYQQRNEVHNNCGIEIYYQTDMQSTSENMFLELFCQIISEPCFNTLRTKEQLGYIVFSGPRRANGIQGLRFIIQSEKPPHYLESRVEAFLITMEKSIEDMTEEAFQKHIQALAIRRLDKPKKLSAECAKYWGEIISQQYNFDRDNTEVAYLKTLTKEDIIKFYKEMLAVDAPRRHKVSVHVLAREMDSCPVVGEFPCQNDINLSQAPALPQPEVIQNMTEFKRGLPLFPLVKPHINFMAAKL
With `Cc1ccc(C)c(N2C(=N)S/C(=C\c3ccc(-c4ccccc4C(=O)O)o3)C2=O)c1` the IC50 was > 10 µM (inactive).
`O=c1c2ccccc2sn1-c1cc(S(=O)(=O)N2CCOCC2)ccc1N1CCOCC1` gave an IC50 of 4 µM.
In the case of `Cc1cccc(-c2nnc(SCc3nc4ccccc4[nH]3)n2Cc2ccco2)c1`, the IC50 is reported as > 10 µM (inactive).
For `O=C(Nc1cccc(C(F)(F)F)c1)c1csc(-c2ccncc2)n1`, the IC50 was > 10 µM (inactive).
With `CCOc1ccc2[nH]c3c(N4CCN(C(=O)c5ccco5)CC4)ncnc3c2c1` the IC50 was > 10 µM (inactive).
`O=C(C1CC1)N1CCN(c2ccnc3cc(Cl)ccc23)CC1` was tested, and the IC50 was > 10 µM (inactive).
In the case of `Nc1c(C(=O)Nc2nccs2)sc2nc(-c3cccs3)cc(C(F)(F)F)c12`, the IC50 is reported as > 10 µM (inactive).
`O=C(O)c1ccccc1NS(=O)(=O)c1cccc(-n2sc3ccccc3c2=O)c1` showed an IC50 of 4 µM.
With `Cc1c(CCC(=O)NCCCn2ccnc2)c(=O)oc2cc3oc4c(c3cc12)CCCC4` the IC50 was > 10 µM (inactive).
`COc1cccc(-c2nnc(SCc3nc4ccccc4[nH]3)n2Cc2ccco2)c1` was tested, and the IC50 was > 10 µM (inactive).
In the case of `COc1cc(/C=C2\SC(=S)N(NC(C)=O)C2=O)ccc1OC(=O)c1ccco1`, the IC50 is reported as > 10 µM (inactive).
For `CCN(CC)c1ccc(/C=C2\C(=N)N3N=C(CC(=O)N4CCOCC4)SC3=NC2=O)cc1`, the IC50 was > 10 µM (inactive).
In the case of `O=C(Nc1ccc2oc(-c3cccnc3)nc2c1)c1ccc2c(c1)OCCO2`, the IC50 is reported as > 10 µM (inactive).
In the case of `Clc1cccc(-c2nnc(SCc3nc4ccccc4[nH]3)n2Cc2ccco2)c1`, the IC50 is reported as > 10 µM (inactive).
For `Cn1c(=O)c(C(=O)CN2CCCc3ccccc32)c(N)n(Cc2ccccc2)c1=O`, the IC50 was > 10 µM (inactive).
`COc1ccc(C(=O)N2CCN(C(=O)C3COc4ccccc4O3)CC2)cc1OC` (stereo unspecified) gave an IC50 of 4.1 µM.

Source: PubChem BioAssay AID624065 (The Scripps Research Institute Molecular Screening Center, 2012)
